# Like-named read-outs stand apart in the source and are kept apart here. Bridge positions count the residues as written; N and C are the ends. Square brackets hold non-standard residues; d marks the D form. Peptide text beside a SMILES is read from it. R8 = C=CCCCCCC[C@@](C)(N)C(=O)O; S5 = C=CCCC[C@](C)(N)C(=O)O
# Columns and labels:
# HIV-1 IIIB [1] = test system: HIV-1 IIIB
# Method: (§1) The inhibitory activity of NYAD-201, and related stapled peptides on infection by laboratory-adapted HIV-1 strains was determined as previously described (Jiang et al. J Exp. Med 174:1557-1563, 1991) with minor modifications. Azidothymidine (AZT) was used as a positive control in the infectivity assays. In brief, 1×10^4 MT-2 cells were infected with HIV-1 at 100 TCID50 (50% tissue culture infective dose) (0.01 MOI [multiplicity of infection]) in 200 μl RPMI 1640 medium containing 10% FBS in the presence or absence of peptides at graded concentrations overnight. The culture supernatants were then removed and fresh media containing freshly prepared test peptide were added. On the fourth day post-infection, 100 μl of culture supernatants were collected from each well, mixed with equal volume of 5% Triton X-100 and tested for p24 antigen by ELISA.
# (§2) In addition, NYAD-201, NYAD-202 and NYAD-203 were also tested using several laboratory-adapted and primary isolates in MT-2 cells and PBMC (peripheral blood mononuclear cells), respectively.
# [2] = Cytotoxicity, XTT method, MT-2 cells; format: cell-based, human; details: human, read-out: CC50 (μM) ± SD, cytotoxicity in MT-2 cells
# Method: (§3) Cytotoxicity of peptides in MT-2 cells and PBMC was measured by the XTT [(sodium 3′-(1-(phenylamino)-carbonyl)-3,4-tetrazolium-bis(4-methoxy-6-nitro) bezenesulfonic acid hydrate)] method as previously described (Jiang et al., 2004). Briefly, for MT-2 cells, 100 μl of a peptide at graded concentrations was added to an equal volume of cells (1×10^5 cells/ml) in 96-well plates followed by incubation at 37° C. for 4 days, which ran parallel to the neutralization assay in MT-2 (except medium was added instead of virus). In the case of PBMC, 5×10^5 cells/ml were used and the cytotoxicity was measured after 7 days. After addition of XTT (PolySciences, Inc.), the soluble intracellular formazan was quantitated colorimetrically at 450 nm 4 hr later with a reference at 620 nm. The percent of cytotoxicity and the CC50 values were calculated as above (Table 2 and Table 3).
# HIV-1 IIIB [3] = test: Release and infectivity of HIV-1 virus released from infected MT-2 cells after treatment; format: cell-based; details: 500 nM, normalized for p24, TCID50
# Method: On the fourth day post-infection, the supernatants were collected and filtered with a 0.45 μm PVDF membrane. One aliquot of the supernatants from each sample was mixed 1:1 with a solution of 5% Triton X-100 for p24 quantification, and stored at 4° C., another aliquot was immediately frozen at −80° C. and used to compare the infectivity of the viral particles released by NYAD-201 and NYAD-202 treated cells to the viral particles released by untreated cells. The protein p24 was first quantified by sandwich-ELISA, then the viral samples were normalized for the p24 content and titered to calculate the TCID50. MT-2 cells were infected with a two fold dilutions of virus from NYAD-201 and NYAD-202 treated and untreated cells. […] On the fourth day post infection supernatants were collected for p24 quantification by sandwich-ELISA and the TCID50 was calculated by the Spearman-Karber statistical method. […]
# For these reasons, not only the quantity but also the quality of the viral particles released in the supernatant was evaluated. First, the p24/viral particles released in the supernatant following NYAD-201 and NYAD-202 treatment were quantified, then starting with the same amount of p24 per sample, the viruses released in the supernatant were titered. The TCID50 was calculated and expressed as percentage infectivity with respect to the untreated positive control. […]
# HIV-1 AZT-R = details: read-out: IC50 (μM ± SD), HIV-1 AZT-R; RT-resistant isolate, subtype B, MT-2, coreceptor X4
# Method: as §1, §2
# [4] = Cytotoxicity, XTT method, PBMC; format: cell-based; details: human
# Method: as §3
# Jurkat cells = test: Cytotoxicity, LDH leakage, Jurkat cells; format: cell-based; details: 30 min, 2 hr and 4 hr of exposure
# Method: Cytotoxicity was also evaluated in Jurkat cells using a Promega LDH leakage detection kit. Jurkat cells were plated at 10^4 cells/well in a volume of 200 μl. The test was performed after 30 min, 2 hr and 4 hr of exposure to the NYAD-201, NYAD-202 and NYAD-203 compounds.
# [5] = read-out: IC50 (μM) ± SD, antiviral activity against HIV-1 IIIB, MT-2 cells, p24 production, fourth day post-infection
SMILES,IC50 (HIV-1 IIIB [1]; [5]),CC50 at 4 days [2],other results
"CC(C)C[C@@H]1NC(=O)[C@H]([C@@H](C)O)NC(=O)[C@H](CCC(=O)O)NC(=O)[C@H]([C@@H](C)O)NC(=O)[C@H](C)NC(=O)[C@H](Cc2c[nH]c3ccccc23)NC(=O)[C@](C)(NC(=O)[C@H](CCCCN)NC(=O)[C@H](Cc2c[nH]c3ccccc23)NC(=O)[C@H](C)NC(=O)[C@H](CCC(N)=O)NC(=O)[C@H](C)N)CCCCCCC=CCCC[C@@](C)(C(=O)N[C@H](C(=O)N[C@@H](C)C(=O)N[C@@H](CC(N)=O)C(N)=O)C(C)C)NC1=O [NYAD-222, AQAWKZWATETLXVAN] (H-AQAWK[R8]WATETL[S5]VAN-NH2; staple 6-13)",9.3 ± 1.6 µM,> 130 µM,–
"CSCC[C@@H]1NC(=O)[C@H](Cc2c[nH]c3ccccc23)NC(=O)[C@@](C)(NC(=O)[C@H](CCCCN)NC(=O)[C@@H](NC(=O)[C@H](C)NC(=O)[C@H](CCC(N)=O)NC(=O)[C@H](C)N)C(C)C)CCCC=CCCC[C@@](C)(C(=O)N[C@H](C(=O)N[C@@H](CC(C)C)C(=O)N[C@@H](CC(C)C)C(=O)N[C@@H](CCCCN)C(=O)N[C@@H](C)C(=O)N[C@@H](CC(N)=O)C(=O)N[C@@H](C)C(=O)N[C@@H](CCC(=O)O)C(N)=O)[C@@H](C)O)NC(=O)[C@H]([C@@H](C)O)NC1=O [NYAD-214, AQAVKXWMTXTLLKANAE] (H-AQAVK[S5]WMT[S5]TLLKANAE-NH2; staple 6-10)",17.4 ± 0.9 µM,> 48 µM,–
"CC[C@H](C)[C@H](N)C(=O)N[C@@H](C)C(=O)N[C@@H](CCC(N)=O)C(=O)N[C@@H](C)C(=O)N[C@@H](CCCCN)C(=O)N[C@H](C(=O)N[C@@H](CCC(=O)O)C(=O)N[C@@]1(C)CCCC=CCCC[C@@](C)(C(=O)N[C@H](C(=O)N[C@@H](CC(C)C)C(=O)N[C@@H](CC(C)C)C(=O)N[C@H](C(=O)N[C@@H](C)C(=O)N[C@@H](CC(N)=O)C(N)=O)C(C)C)[C@@H](C)O)NC(=O)[C@H]([C@@H](C)O)NC(=O)[C@H](CCSC)NC(=O)[C@H](Cc2c[nH]c3ccccc23)NC1=O)C(C)C [NYAD-223, IAQAKVEXWMTXTLLVAN] (H-IAQAKVE[S5]WMT[S5]TLLVAN-NH2; staple 8-12)",7.2 ± 1.2 µM,> 124 µM,–
"CSCC[C@@H]1NC(=O)[C@H](Cc2c[nH]c3ccccc23)NC(=O)[C@@](C)(NC(=O)[C@H](CCCCN)NC(=O)[C@@H](NC(=O)[C@H](C)NC(=O)[C@H](CCC(N)=O)NC(=O)[C@H](C)N)C(C)C)CCCC=CCCC[C@@](C)(C(=O)N[C@H](C(=O)N[C@@H](CC(C)C)C(=O)N[C@@H](CCCCN)C(=O)N[C@H](C(=O)N[C@@H](C)C(=O)N[C@@H](CCC(=O)O)C(N)=O)C(C)C)[C@@H](C)O)NC(=O)[C@H](CCC(=O)O)NC1=O [NYAD-220, AQAVKXWMEXTLKVAE] (H-AQAVK[S5]WME[S5]TLKVAE-NH2; staple 6-10)",> 52.7 µM,> 105 µM,–
"Cc1c(O)cccc1C(=O)N[C@@H](CSc1ccccc1)[C@H](O)CN1C[C@H]2CCCC[C@H]2C[C@H]1C(=O)NC(C)(C)C [NFV, nelfinavir, reference compound]",–,–,Infectivity of virus produced by treated cells (HIV-1 IIIB [3]): not infectious or slightly infectious
"CSCC[C@@H]1NC(=O)[C@H](CCCCN)NC(=O)[C@@](C)(NC(=O)[C@H](Cc2c[nH]c3ccccc23)NC(=O)[C@@H](NC(=O)[C@H](CC(C)C)NC(=O)[C@H](CCC(N)=O)NC(=O)[C@@H](N)CCC(=O)O)C(C)C)CCCC=CCCC[C@@](C)(C(=O)N[C@@H](C)C(=O)N[C@@H](CC(C)C)C(=O)N[C@@H](C)C(=O)N[C@H](C(=O)N[C@H](C(N)=O)[C@@H](C)O)C(C)C)NC(=O)[C@H]([C@@H](C)O)NC1=O [NYAD-215, EQLVWXKMTXALAVT, reference compound] (H-EQLVW[S5]KMT[S5]ALAVT-NH2; staple 6-10)",> 56 µM,> 112 µM,–
"CSCC[C@@H]1NC(=O)[C@H](Cc2c[nH]c3ccccc23)NC(=O)[C@](C)(NC(=O)[C@H](CCCCN)NC(=O)[C@@H](NC(=O)[C@H](C)NC(=O)[C@H](CCC(N)=O)NC(=O)[C@H](C)N)C(C)C)CCCCCCC=CCCC[C@@](C)(C(=O)N[C@H](C(=O)N[C@@H](C)C(N)=O)C(C)C)NC(=O)[C@H](CC(C)C)NC(=O)[C@H]([C@@H](C)O)NC(=O)[C@H](CCC(=O)O)NC(=O)[C@H]([C@@H](C)O)NC1=O [NYAD-221, AQAVKZWMTETLXVA] (H-AQAVK[R8]WMTETL[S5]VA-NH2; staple 6-13)",7.97 ± 1.03 µM,> 140 µM,–
"CC(C)C[C@H](NC(=O)[C@H](CC(C)C)NC(=O)[C@@H](NC(=O)[C@]1(C)CCCC=CCCC[C@](C)(NC(=O)[C@H](CCCCN)NC(=O)[C@H](Cc2c[nH]c3ccccc23)NC(=O)[C@H](C)NC(=O)[C@H](CCC(N)=O)NC(=O)[C@H](C)N)C(=O)N[C@@H](Cc2c[nH]c3ccccc23)C(=O)N[C@@H](C)C(=O)N[C@@H]([C@@H](C)O)C(=O)N1)[C@@H](C)O)C(=O)N[C@H](C(=O)N[C@@H](C)C(=O)N[C@@H](CCC(=O)O)C(N)=O)C(C)C [NYAD-219, AQAWKXWATXTLLVAE] (H-AQAWK[S5]WAT[S5]TLLVAE-NH2; staple 6-10)",3.7 ± 0.06 µM,> 106 µM,–
"CSCC[C@H](NC(=O)[C@H](Cc1c[nH]c2ccccc12)NC(=O)[C@H](CC(N)=O)NC(=O)[C@H](CCCCN)NC(=O)[C@@H](NC(=O)[C@H](C)NC(=O)[C@H](CCC(N)=O)NC(=O)[C@H](C)N)C(C)C)C(=O)N[C@H](C(=O)N[C@@]1(C)CCCC=CCCC[C@@](C)(C(=O)N[C@@H](C)C(N)=O)NC(=O)[C@H](CC(C)C)NC(=O)[C@H](CC(C)C)NC(=O)[C@H]([C@@H](C)O)NC1=O)[C@@H](C)O [NYAD-218, AQAVKNWMTXTLLXA] (H-AQAVKNWMT[S5]TLL[S5]A-NH2; staple 10-14)",4.6 ± 0.4 µM,67.3 ± 4.4 µM,–
"CSCC[C@@H]1NC(=O)[C@H](Cc2c[nH]c3ccccc23)NC(=O)[C@@](C)(NC(=O)[C@H](CCCCN)NC(=O)[C@@H](NC(=O)[C@H](CCC(=O)O)NC(=O)[C@H](CCC(N)=O)NC(=O)[C@H](C)N)C(C)C)CCCC=CCCC[C@@](C)(C(=O)N[C@H](C(=O)N[C@@H](CC(C)C)C(=O)N[C@@H](CC(C)C)C(=O)N[C@H](C(=O)N[C@@H](C)C(=O)N[C@@H](CCCCN)C(=O)N[C@@H](CCCCN)C(=O)N[C@@H](CCCCN)C(N)=O)C(C)C)[C@@H](C)O)NC(=O)[C@H]([C@@H](C)O)NC1=O [NYAD-203, AQEVKXWMTXTLLVAKKK] (H-AQEVK[S5]WMT[S5]TLLVAKKK-NH2; staple 6-10)",6.29 ± 0.54 µM,13.2 ± 0.5 µM,"IC50 (HIV-1 IIIB [1]; read-out: IC50 (μM ± SD), HIV-1 IIIB, laboratory strain, subtype B, MT-2, coreceptor X4): 6.29 ± 0.54 µM; IC50 (HIV-1 AZT-R): 11.1 ± 3.82 µM; CC50 at 7 days [4]: 16 ± 1.47 µM; Cytotoxicity in Jurkat cells (LDH leakage) (Jurkat cells): more toxic at the two higher doses"
"CSCC[C@@H]1NC(=O)[C@H](Cc2c[nH]c3ccccc23)NC(=O)[C@@](C)(NC(=O)[C@H](CCCCN)NC(=O)[C@@H](NC(=O)[C@H](C)NC(=O)[C@H](CCC(N)=O)NC(=O)[C@H](C)N)C(C)C)CCCC=CCCC[C@@](C)(C(=O)N[C@H](C(=O)N[C@@H](CC(C)C)C(=O)N[C@@H](CC(C)C)C(=O)N[C@H](C(=O)N[C@@H](CCC(=O)O)C(=O)N[C@@H](CC(N)=O)C(=O)N[C@@H](C)C(N)=O)C(C)C)[C@@H](C)O)NC(=O)[C@H]([C@@H](C)O)NC1=O [NYAD-212, AQAVKXWMTXTLLVENA] (H-AQAVK[S5]WMT[S5]TLLVENA-NH2; staple 6-10)",5.95 ± 0.33 µM,> 102 µM,–
